{"source": "patent US11213508B2", "about": "“Compositions comprising urolithins and uses thereof for the stimulation of insulin secretion” (Centre National de la Recherche Scientifique (CNRS), priority 2013, dated 2022)", "format_in_all_cases": "cell-based", "key": {"[1]": {"test_system": "INS-1 insulin-secreting β-cells", "test": "Insulin secretion in INS-1 cells under low-glucose (1.4 mmol·L^−1) condition", "conditions": "1.4 mmol·L^−1 glucose; maximal concentration tested 20", "description": "The insulin-secreting cell line INS-1 (a gift from Professor C. B. Wollheim) was cultured in RPMI-1640, supplemented with 10% fetal calf serum (FCS), 100 U·mL^−1 penicillin, 100 μg·mL^−1 streptomycin, 2 mmol·L^−1 L-glutamine, 10 mmol·L^−1 HEPES, 1 mmol·L^−1 sodium pyruvate, and […] 2-mercaptoethanol, as previously described by Youl et al. (2010). Cells were seeded in 24-well plates (4×10^5 cells per well) and were used for experiments after 5 days of culture.\n(§1) Before the treatment, RPMI medium was removed and the cells were washed twice with HEPES-balanced Krebs-Ringer bicarbonate buffer (KRB) containing (in mmol·L^−1): 123 NaCl, 5.4 KCl, 1.3 KH2PO4, 2.7 MgSO4, 2.9 CaCl2, 5 NaHCO3 and 20 HEPES, pH 7.5, with 2 g·L^−1 bovine serum albumin (KRB/BSA). Cells were incubated for 1 h (5% CO2, 37° C.) in KRB medium containing 8.3 mmol·L^−1 glucose (glucose-stimulated secretion) in the presence or absence of the compounds tested. At the end of the 1 h incubation period, the medium was sampled and stored at −20° C. until the insulin assay. Insulin concentration in cell supernatants was determined using the homogeneous time resolved fluorescence technology (HTRF), according to the manufacturer's instructions (HTRF insulin assay kit, Cisbio International, Bagnols-sur-Ceze, France). Briefly, two anti-insulin antibodies were used; one labelled with Eu^3+-Cryptate and one labelled with XL665 recognizing distinct epitopes. When these two fluorophores bind to insulin molecules, the two antibodies come into close proximity, allowing fluorescence resonance energy transfer (FRET) to occur between the Eu^3+-Cryptate and the XL665. This FRET increases proportionally with the insulin concentrations. All the experiments were performed at least in quadruplicate.\nMaterial and methods were the same as described in example 1. For the determination of insulin secretion, cells were incubated for 1 h (5% CO2, 37° C.) in KRB medium containing either 1.4 mmol·L^−1 glucose (low-glucose) or 8.3 mmol·L^−1 glucose (glucose-stimulated secretion) in the presence or absence of the compounds tested. At the end of the 1 h incubation period, mediums were sampled and stored at −20° C. until the insulin assay. Insulin concentration in cell supernatants was determined as described in Example 1."}, "[2]": {"test_system": "INS-1 insulin-secreting β-cells", "test": "INS-1 cell viability (MTT) in the presence of oxidative stress (H2O2)", "conditions": "20 μmol·L^−1 urolithin; 8.3 mmol·L^−1 glucose + H2O2", "description": "(§2) For protection experiments, INS-1 cells were pre-incubated with the indicated concentrations of urolithins for one hour (5% CO2, 37° C.) in RPMI medium. After two washes in HEPES-balanced Krebs-Ringer bicarbonate buffer (123 mmol·L^−1 NaCl, 5.4 mmol·L^−1 KCl, 1.3 mmol·L^−1 KH2PO4, 2.7 mmol·L^−1 MgSO4, 2.9 mmol·L^−1 CaCl2, 5 mmol·L^−1 NaHCO3 and 20 mmol·L^−1 HEPES, pH 7.5) containing 2 g·L^−1 bovine serum albumin (KRB/BSA), INS-1 cells were incubated for one hour (5% CO2, 37° C.) in KRB/BSA containing urolithins at the indicated concentrations in the presence of 1.4 mmol·L^−1 glucose (basal condition) or 8.3 mmol·L^−1 glucose (stimulant condition). When used, H2O2 (50 gmol·L^−1) was added at the beginning of the one-hour incubation period. Control experiments were performed in the basal condition, in the absence of urolithins during the pre-incubation and incubation periods.\nCell viability was determined using the 3-(4,5-Dimethylthiazol-2-yl)-2,5-diphenyltetrazolium bromide (MTT) assay. At the end of the one-hour incubation period, cells were washed with KRB/BSA and KRB/BSA containing 5 mg/ml MTT was added to each well. Plates were then incubated for 3 h in the dark in a humidified atmosphere (5% CO2, 37° C.). Cells were washed with phosphate buffered saline (PBS) and precipitates were dissolved in 50 μl dimethyl sulfoxide (DMSO). Absorbance of the reduced intracellular formazan product was read at 492 nm on a microtiter plate reader (Tecan, Lyon, France). Experiments were performed in quadruplicate."}, "[3]": {"test_system": "INS-1 insulin-secreting β-cells", "test": "Insulin secretion in INS-1 cells in the presence of oxidative stress (H2O2)", "conditions": "8.3 mmol·L^−1 glucose + H2O2; for concentration active in preventing insulin secretion impairment induced by H2O2: lowest active concentration", "description": "as §1, §2\nInsulin secretion was determined as described above by measuring insulin accumulation after a one-hour incubation period."}}, "note": "“Also recorded” adds a separate entry of the source."}
{"smiles": "O=c1oc2cc(O)ccc2c2ccc(O)cc12", "note": "[Urolithin A, urolithin A]", "values": [{"measurement": "stimulation of insulin secretion in low-glucose condition", "setting": "[1]", "result": "did not significantly stimulate insulin secretion; also recorded: does not stimulate insulin secretion"}, {"measurement": "prevention of viability impairment induced by H2O2 (MTT)", "setting": "[2]", "result": "no effect"}, {"measurement": "concentration active in preventing insulin secretion impairment induced by H2O2", "setting": "[3]", "result": 20, "unit": "µM"}]}
{"smiles": "O=c1oc2cc(O)ccc2c2ccccc12", "note": "[Urolithin B, urolithin B]", "values": [{"measurement": "stimulation of insulin secretion in low-glucose condition", "setting": "[1]", "result": "induced some stimulation"}, {"measurement": "prevention of viability impairment induced by H2O2 (MTT)", "setting": "[2]", "result": "partially active"}, {"measurement": "insulin secretion stimulation as compared to control conditions", "setting": "[3]; 20 μmol·L^−1", "result": 200, "unit": "%"}, {"measurement": "insulin secretion stimulation as compared to control conditions", "setting": "[3]", "result": 150, "unit": "%"}, {"measurement": "concentration active in preventing insulin secretion impairment induced by H2O2", "setting": "[3]", "result": 5, "unit": "µM"}]}
{"smiles": "O=c1oc2cc(O)ccc2c2cc(O)c(O)cc12", "note": "[Urolithin C, urolithin C]", "values": [{"measurement": "stimulation of insulin secretion in low-glucose condition", "setting": "[1]", "result": "induced some stimulation"}, {"measurement": "prevention of viability impairment induced by H2O2 (MTT)", "setting": "[2]", "result": "totally prevent viability impairment"}, {"measurement": "insulin secretion stimulation as compared to control conditions", "setting": "[3]; 20 μmol·L^−1", "result": 200, "unit": "%"}, {"measurement": "concentration active in preventing insulin secretion impairment induced by H2O2", "setting": "[3]", "result": 5, "unit": "µM"}]}
{"smiles": "O=c1oc2c(O)c(O)ccc2c2cc(O)c(O)cc12", "note": "[Urolithin D, urolithin D]", "values": [{"measurement": "stimulation of insulin secretion in low-glucose condition", "setting": "[1]", "result": "induced some stimulation"}, {"measurement": "prevention of viability impairment induced by H2O2 (MTT)", "setting": "[2]", "result": "totally prevent viability impairment"}, {"measurement": "concentration active in preventing insulin secretion impairment induced by H2O2", "setting": "[3]", "result": 5, "unit": "µM"}]}
